Source: patent publication US11708562B2, “Differentiation of human embryonic stem cells” (Janssen Biotech, Inc., priority 2006, dated 2023)

Tested on: H9P33, H9P44 and H9P48 cells
Assay: Microarray analysis of definitive endoderm on MEFs vs MATRIGEL +/- Wnt-3A (Table VI)
Procedure: Controls for each group included cells plated on […]-coated dishes and cultured in MEF-conditioned medium or cells plated on MEFs and cultured in ES medium. All groups contained three biological replicates and each biological replicate was repeated on two separate gene chips.
Sample preparation, hybridization, and image analysis were performed according to the Affymetrix Human Genome U133 Plus 2.0 Array. Following normalization and a log transformation, data analysis was performed using OmniViz® software (MA) and […] (VizXLabs, WA). Significant differences in gene expression between the samples were evaluated using analysis of variance and an F-test with adjusted P-value (Benjamini and Hochberg correction) of ≤0.05. Only genes with a present call in at least one group were included in the analysis.

[1] = DE treatment in low serum, on MEFS
[2] = log format, DE treatment in low serum + AA on MATRIGEL

With “Activin A: a member of the TGFβ superfamily; growth factor (R&D Systems) used to differentiate human embryonic stem cells” the “mean normalized intensity (log format), Homo sapiens glycophorin Erik STA (GPErik) gene” value [1] was −0.4544, the “mean normalized intensity (log format), Homo sapiens growth differentiation factor 3 (GDF3), mRNA” value [1] was 2.875 and the “mean normalized intensity (log format), Homo sapiens haptoglobin (HP), mRNA” value [1] was 0.477. The “mean normalized intensity (log format), Homo sapiens haptoglobin-related protein (HPR), mRNA” value [1] was −1.196, the “mean normalized intensity (log format), Homo sapiens homeobox protein goosecoid mRNA, complete cds” value [1] was 1.894 and the “mean normalized intensity (log format), Homo sapiens hypothetical protein FLJ10718 (FLJ10718), mRNA” value [1] was 5.552. For the same substance, the “mean normalized intensity (log format), Homo sapiens hypothetical protein FLJ10970 (FLJ10970), mRNA” value [1] was 3.02, the “mean normalized intensity (log format), Homo sapiens hypothetical protein FLJ11316 (FLJ11316), mRNA” value [1] was 0.7553 and the “mean normalized intensity (log format), Homo sapiens hypothetical protein FLJ22252 similar to SRY-box containing gene 17 (FLJ22252), mRNA” value [1] was 4.5979. The “mean normalized intensity (log format), Homo sapiens hypothetical protein FLJ23403 (FLJ23403), mRNA” value [1] was −1.004, the “mean normalized intensity (log format), Homo sapiens lumican (LUM), mRNA” value [1] was 0.9488 and the “mean normalized intensity (log format), Homo sapiens mRNA for GATA-6, complete cds” value [1] was 5.343. The “mean normalized intensity (log format), Homo sapiens mRNA for KIAA1409 protein, partial cds” value [1] was −1.032, the “mean normalized intensity (log format), Homo sapiens mRNA; cDNA DKFZp434D0818 (from clone DKFZp434D0818)” value [1] was −0.3056 and the “mean normalized intensity (log format), Homo sapiens mRNA; cDNA DKFZp586J0624 (from clone DKFZp586J0624)” value [1] was 3.699. For the same substance, the “mean normalized intensity (log format), Homo sapiens matrix metalloproteinase 14 (membrane-inserted) (MMP14), mRNA” value [1] was −0.09689, the “mean normalized intensity (log format), Homo sapiens phorbolin-like protein MDS019 (MDS019), mRNA” value [1] was 2.408 and the “mean normalized intensity (log format), Homo sapiens presenilin stabilization factor b (PSF) mRNA” value [1] was 0.5675. For the same substance, the “mean normalized intensity (log format), Homo sapiens reserved (KCNK12), mRNA” value [1] was 3.78, the “mean normalized intensity (log format), Homo sapiens retinoid X receptor, gamma (RXRG), mRNA” value [1] was −0.3204 and the “mean normalized intensity (log format), Homo sapiens sema domain, immunoglobulin domain (Ig), short basic domain, secreted, (semaphorin) 3E (SEMA3E), mRNA” value [1] was 1.276. The “mean normalized intensity (log format), Homo sapiens sema domain, seven thrombospondin repeats, (semaphorin) 5A (SEMA5A), mRNA” value [1] was 1.487, the “mean normalized intensity (log format), Homo sapiens solute carrier family 16 (monocarboxylic acid transporters), member 3 (SLC16A3), mRNA” value [1] was 1.724 and the “mean normalized intensity (log format), Homo sapiens solute carrier family 21 (prostaglandin transporter), member 2 (SLC21A2), mRNA” value [1] was 2.433. The “mean normalized intensity (log format), Homo sapiens type VI collagen alpha 2 chain precursor (COL6A2) mRNA” value [1] was 2.845, the “mean normalized intensity (log format), Homo sapiens, alpha-1 (VI) collagen” value [1] was −2.269 and the “mean normalized intensity (log format), Homo sapiens, clone MGC: 4655, mRNA” value [1] was 2.476. The “mean normalized intensity (log format), Human (clone 8B1) Br-cadherin mRNA” value [1] was −1.026, the “mean normalized intensity (log format), Human (clone HSY3RR) neuropeptide Y receptor (NPYR) mRNA” value [1] was 5.48 and the “mean normalized intensity (log format), Human DNA sequence from clone RP1-181C24 on chromosome 6p11.1-12.2 (3 end of the BMP5 gene)” value [1] was −0.3731. The “mean normalized intensity (log format), Human Fritz mRNA, complete cds” value [1] was 3.915, the “mean normalized intensity (log format), Human dipeptidyl peptidase IV (CD26) mRNA” value [1] was −1.256 and the “mean normalized intensity (log format), Human glycophorin HeP2 mRNA, partial cds” value [1] was 0.2335. The “mean normalized intensity (log format), Human link protein mRNA, complete cds” value [1] was −1.263, the “mean normalized intensity (log format), Human mRNA for alpha-1 type II collagen” value [1] was −0.3802 and the “mean normalized intensity (log format), Human mRNA for apolipoprotein AI (apo AI)” value [1] was 2.497. The “mean normalized intensity (log format), Human prostatic secretory protein 57 mRNA” value [1] was −0.4077, the “mean normalized intensity (log format), KIAA0878 protein” value [1] was 4.789 and the “mean normalized intensity (log format), KIAA1462 protein” value [1] was 0.4371. For the same substance, the “mean normalized intensity (log format), MCP-1 = monocyte chemotactic protein” value [1] was 2.955, the “mean normalized intensity (log format), Rho GDP dissociation inhibitor (GDI) alpha” value [1] was −2.582 and the “mean normalized intensity (log format), WAS protein family, member 2” value [1] was −1.06. For the same substance, the “mean normalized intensity (log format), collagen, type IX, alpha 2” value [1] was 2.935, the “mean normalized intensity (log format), collagen, type VI, alpha 1” value [1] was 0.6042 and the “mean normalized intensity (log format), glycophorin B (includes Ss blood group)” value [1] was −0.1297. For the same substance, the “mean normalized intensity (log format), hepatocyte nuclear factor 4, alpha” value [1] was 0.4452, the “mean normalized intensity (log format), homeo box HB9” value [1] was 1.631 and the “mean normalized intensity (log format), hypothetical protein FLJ21032” value [1] was 2.618. For the same substance, the “mean normalized intensity (log format), hypothetical protein FLJ23091” value [1] was 3.78, the “mean normalized intensity (log format), hypothetical protein FLJ23403” value [1] was −2.313 and the “mean normalized intensity (log format), matrix metalloproteinase 14 (membrane-inserted)” value [1] was −0.5185. For the same substance, the “mean normalized intensity (log format), microfibrillar-associated protein 4” value [1] was −0.6009, the “mean normalized intensity (log format), myristoylated alanine-rich protein kinase C substrate (MARCKS, 80K-L)” value [1] was 0.3357 and the “mean normalized intensity (log format), neuropilin 1” value [1] was −1.9667. For the same substance, the “mean normalized intensity (log format), noggin” value [1] was 1.33, the “mean normalized intensity (log format), phorbolin-like protein MDS019” value [1] was 0.5035 and the “mean normalized intensity (log format), solute carrier family 16 (monocarboxylic acid transporters), member 3” value [1] was 0.279. For the same substance, the “mean normalized intensity (log format), splicing factor, arginineserine-rich 5” value [1] was 4.272, the “mean normalized intensity (log format), stanniocalcin 1” value [1] was 6.143 and the “mean normalized intensity: DKFZP566K1924 protein” value [2] was 2.882. For the same substance, the “mean normalized intensity: ESTs, Moderately similar to ALU2_HUMAN ALU SUBFAMILY SB SEQUENCE CONTAMINATION WARNING ENTRY (H. sapiens)” value [2] was 4.241, the “mean normalized intensity: H. sapiens mRNA for B-HLH DNA binding protein.” value [2] was 5.43 and the “mean normalized intensity: Homo sapiens BCL2-interacting killer (apoptosis-inducing) (BIK), mRNA.” value [2] was 4.3. For the same substance, the “mean normalized intensity: Homo sapiens Charot-Leyden crystal protein (CLC), mRNA.” value [2] was 3.301, the “mean normalized intensity: Homo sapiens HES-related repressor protein 1 HERP1 mRNA, complete cds.” value [2] was 2.806 and the “mean normalized intensity: Homo sapiens HSPC156 protein (HSPC156), mRNA.” value [2] was 0.7862. The “mean normalized intensity: Homo sapiens KIAA0469 gene product (KIAA0469), mRNA.” value [2] was 4.031, the “mean normalized intensity: Homo sapiens PNAS-123 mRNA, complete cds” value [2] was 1.597 and the “mean normalized intensity: Homo sapiens Wilms tumor 1 (WT1), transcript variant D, mRNA.” value [2] was 2.405. The “mean normalized intensity: Homo sapiens cDNA FLJ11398 fis, clone HEMBA1000637.” value [2] was 2.5268, the “mean normalized intensity: Homo sapiens cDNA: FLJ22547 fis, clone HSI00356” value [2] was 4.294 and the “mean normalized intensity: Homo sapiens cadherin 6, type 2, K-cadherin (fetal kidney) (CDH6), mRNA.” value [2] was 0.8248.
